Assay results taken from US10738001B2, “Hydrofluoroolefins and methods of using same” (priority 2015, dated 2020).
Read-outs that look alike come from different tables or passages of the source. Each block holds one molecule with its values, some of them ahead of it.

What was measured:
[1] = Log KOW (octanol/water partition coefficient) by HPLC, OECD Method 117; type: physicochemical
Description: (§1) In these Examples, Log KOWs, (octanol/water partition coefficients), were determined by HPLC using the method described in OECD Method 117. Atmospheric lifetimes were experimentally determined using a relative rate method to determine the hydroxyl radical rate constant.

[2] = tested on: rats; experiment: toxicity screening study in rats, 4 Hr Inhalation LC50
[3] = Atmospheric lifetime by relative rate method (hydroxyl radical rate constant); type: physicochemical
Description: as §1

Log KOW (octanol/water partition coefficient measured by HPLC) [1]: 4.97
Molecule: FC=C(F)N(C(F)(F)C(F)(F)F)C(F)(F)C(F)(F)C(F)(F)F [Example 8, N-(E&Z)-(1,2-difluorovinyl)-1,1,2,2,3,3,3-heptafluoro-N-(perfluoroethyl)propan-1-amine]

Molecule: FC(=CC(F)(F)F)N1C(F)(F)C(F)(F)OC(F)(F)C1(F)F [Example 2]
Log KOW (octanol/water partition coefficient measured by HPLC) [1]: 4.80
4 Hr Inhalation LC50 [2]: > 10,390 ppm
atmospheric lifetime [3]: 0.89 years

Molecule: F/C(=C\C(F)(F)F)N(C(F)(F)F)C(F)(F)F [Example 3, (E&Z)-1,3,3,3-tetrafluoro-N,N-bis(trifluoromethyl)prop-1-en-1-amine]
chromatographic logP [1]: 4.12
atmospheric lifetime [3]: 1.3 years

Molecule: 4-(E&Z)-(1,2-difluorovinyl)-2,2,3,3,5,5,6,6-octafluoromorpholine [Example 4]
Log KOW (octanol/water partition coefficient measured by HPLC) [1]: 4.31
4 Hr Inhalation LC50 [2]: > 10,000 ppm
atmospheric lifetime [3]: 0.078 years

Molecule: FC(=CC(F)(F)F)N(C(F)(F)F)C(F)(F)C(F)(F)F [Example 1, (E&Z)-1,3,3,3-tetrafluoro-N-(1,1,2,2,2-pentafluoroethyl)-N-(trifluoromethyl)prop-1-en-1-amine]
Log KOW (octanol/water partition coefficient measured by HPLC) ([1]; HPLC, OECD Method 117, average value for the E/Z product mixtures of Examples 1-3): 4.57

Molecule: C=C(F)N1C(F)(F)C(F)(F)OC(F)(F)C1(F)F [Example 6, 2,2,3,3,5,5,6,6-octafluoro-4-(1-fluorovinyl)morpholine]
chromatographic logP ([1]; octanol/water, HPLC, OECD Method 117, average value for the E/Z product mixtures of Examples 1-3, read-out: Log KOW (octanol/water partition coefficient measured by HPLC)): 4.33
4 Hr Inhalation LC50 [2]: > 10,000 ppm
atmospheric lifetime [3]: 0.095 years
